Legend:
[1] = system: NCI-H1975; experiment: Induction of apoptosis in human NCI-H1975 cells assessed as necrotic cells at 50 nM incubated for 48 hrs by propidium iodide and annexin-V FITC staining based flow cytometry (reference value: 0.01 %); type: functional
[2] = system: NCI-H1975; experiment: Induction of apoptosis in human NCI-H1975 cells assessed as early apoptotic cells at 25 nM incubated for 72 hrs by propidium iodide and annexin-V FITC staining based flow cytometry (reference value: 2.43 %); type: functional
[3] = system: PC-9; experiment: Antiproliferative activity against human PC9 cells expressing EGFR L858R mutant assessed as reduction in cell viability incubated for 72 hrs by MTT assay; type: functional, cell-based; conditions: pc-9
[4] = system: NCI-H1975; experiment: Induction of apoptosis in human NCI-H1975 cells assessed as early apoptotic cells at 5 nM incubated for 24 hrs by propidium iodide and annexin-V FITC staining based flow cytometry (reference value: 0.94 %); type: functional
[5] = system: NCI-H1975; experiment: Induction of apoptosis in human NCI-H1975 cells assessed as late apoptotic cells at 25 nM incubated for 72 hrs by propidium iodide and annexin-V FITC staining based flow cytometry (reference value: 0.01 %); type: functional
[6] = system: NCI-H1975; experiment: Induction of apoptosis in human NCI-H1975 cells assessed as necrotic cells at 5 nM incubated for 24 hrs by propidium iodide and annexin-V FITC staining based flow cytometry (reference value: 0.01 %); type: functional
[7] = Cytotoxicity against human HEK293A cells expressing EGFR assessed as reduction in cell viability incubated for 72 hrs by MTT assay; type: cell-based, HEK293-A; conditions: hek293-a
[8] = biological target: T1, Epidermal growth factor receptor (Homo sapiens, UniProt P00533); experiment: Inhibition of recombinant human GST-tagged EGFR (668 to 1210 residues) expressed in baculovirus expression system using Tyr 04 as substrate incubated for 1 hr by Z'-LYTE assay
T1 sequence (P00533 whole entry, the tested form may be a part): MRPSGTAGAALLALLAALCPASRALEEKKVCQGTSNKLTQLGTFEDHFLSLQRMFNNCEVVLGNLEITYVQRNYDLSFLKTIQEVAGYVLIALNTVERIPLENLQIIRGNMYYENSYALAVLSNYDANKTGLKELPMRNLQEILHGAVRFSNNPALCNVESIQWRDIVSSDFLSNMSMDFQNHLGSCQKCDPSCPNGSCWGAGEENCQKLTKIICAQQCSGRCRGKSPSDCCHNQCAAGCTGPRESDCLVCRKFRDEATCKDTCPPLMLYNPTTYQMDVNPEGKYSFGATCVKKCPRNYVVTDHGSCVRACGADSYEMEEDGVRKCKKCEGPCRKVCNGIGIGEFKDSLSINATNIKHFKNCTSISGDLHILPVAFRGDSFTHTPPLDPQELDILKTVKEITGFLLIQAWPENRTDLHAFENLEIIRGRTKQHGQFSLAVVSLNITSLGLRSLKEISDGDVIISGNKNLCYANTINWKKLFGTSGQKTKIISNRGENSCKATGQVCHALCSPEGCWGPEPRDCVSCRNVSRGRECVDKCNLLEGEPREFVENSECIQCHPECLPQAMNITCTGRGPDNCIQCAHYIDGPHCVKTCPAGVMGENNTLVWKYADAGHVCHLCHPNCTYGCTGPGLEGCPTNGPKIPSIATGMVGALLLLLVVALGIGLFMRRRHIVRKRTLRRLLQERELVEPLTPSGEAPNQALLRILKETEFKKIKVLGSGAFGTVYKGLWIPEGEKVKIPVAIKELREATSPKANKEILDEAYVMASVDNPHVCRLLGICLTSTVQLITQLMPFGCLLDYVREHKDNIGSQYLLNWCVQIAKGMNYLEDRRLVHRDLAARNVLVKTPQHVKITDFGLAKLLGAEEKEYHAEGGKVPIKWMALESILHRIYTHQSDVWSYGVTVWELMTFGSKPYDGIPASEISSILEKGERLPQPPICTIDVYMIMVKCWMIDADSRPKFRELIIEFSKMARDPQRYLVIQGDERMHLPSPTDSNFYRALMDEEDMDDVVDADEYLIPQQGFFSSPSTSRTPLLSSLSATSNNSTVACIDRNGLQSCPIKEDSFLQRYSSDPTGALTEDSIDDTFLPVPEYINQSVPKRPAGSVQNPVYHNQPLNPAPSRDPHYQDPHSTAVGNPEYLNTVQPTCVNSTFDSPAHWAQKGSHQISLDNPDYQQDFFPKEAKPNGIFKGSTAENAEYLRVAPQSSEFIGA

[9] = system: NCI-H1975; experiment: Induction of apoptosis in human NCI-H1975 cells assessed as late apoptotic cells at 5 nM incubated for 48 hrs by propidium iodide and annexin-V FITC staining based flow cytometry (reference value: 0.23 %); type: functional
[10] = Selectivity index, ratio of IC50 for human HEK293A cells to IC50 for human NCI-H1975 cells expressing EGFR T790M/L858R mutant; type: toxicity
[11] = system: NCI-H1975; experiment: Induction of apoptosis in human NCI-H1975 cells assessed as late apoptotic cells at 5 nM incubated for 24 hrs by propidium iodide and annexin-V FITC staining based flow cytometry (reference value: 0.23 %); type: functional
[12] = system: NCI-H1975; experiment: Induction of apoptosis in human NCI-H1975 cells assessed as necrotic cells at 5 nM incubated for 48 hrs by propidium iodide and annexin-V FITC staining based flow cytometry (reference value: 0.01 %); type: functional
[13] = MRT (0 to infinity) in ICR mouse at 10 mg/kg, po; type: ADME, organism-based; conditions: in vivo
[14] = biological target: T1, Epidermal growth factor receptor; experiment: Inhibition of EGFR in human NCI-H292 cells assessed as reduction in EGFR Y1068 phosphorylation at incubated for 4 hrs by Western blot analysis; type: cell-based
[15] = system: NCI-H1975; experiment: Induction of apoptosis in human NCI-H1975 cells assessed as necrotic cells at 5 nM incubated for 72 hrs by propidium iodide and annexin-V FITC staining based flow cytometry (reference value: 0.01 %); type: functional
[16] = Selectivity index, ratio of IC50 for human HLF cells to IC50 for human NCI-H1975 cells expressing EGFR T790M/L858R mutant
[17] = system: NCI-H1975; experiment: Induction of apoptosis in human NCI-H1975 cells assessed as necrotic cells at 25 nM incubated for 24 hrs by propidium iodide and annexin-V FITC staining based flow cytometry (reference value: 0.01 %); type: functional
[18] = Cytotoxicity against human HLF cells expressing EGFR assessed as reduction in cell viability incubated for 72 hrs by MTT assay; type: cell-based
[19] = system: NCI-H1975; experiment: Induction of apoptosis in human NCI-H1975 cells assessed as early apoptotic cells at 5 nM incubated for 72 hrs by propidium iodide and annexin-V FITC staining based flow cytometry (reference value: 2.43 %); type: functional
[20] = system: NCI-H1975; experiment: Induction of apoptosis in human NCI-H1975 cells assessed as late apoptotic cells at 50 nM incubated for 24 hrs by propidium iodide and annexin-V FITC staining based flow cytometry (reference value: 0.23 %); type: functional
[21] = system: NCI-H1975; experiment: Inhibition of cell migration in human NCI-H1975 cells at 5 nM incubated for 24 hrs by phase contrast microscopy relative to control; type: functional; conditions: NCI-H1975, 24 h
[22] = Selectivity index, ratio of IC50 for human BJ cells to IC50 for human NCI-H1975 cells expressing EGFR T790M/L858R mutant; type: toxicity
[23] = AUC (0 to infinity) in ICR mouse at 5 mg/kg, iv; type: ADME, organism-based; design: dose 5 mg/kg, time infinity, route intravenous; conditions: in vivo
[24] = system: NCI-H1975; experiment: Induction of apoptosis in human NCI-H1975 cells assessed as viable cells at 5 nM incubated for 48 hrs by propidium iodide and annexin-V FITC staining based flow cytometry (reference value: 99.05 %); type: functional; conditions: NCI-H1975, 48 h, read-out: Activity
[25] = system: NCI-H1975; experiment: Induction of apoptosis in human NCI-H1975 cells assessed as viable cells at 5 nM incubated for 72 hrs by propidium iodide and annexin-V FITC staining based flow cytometry (reference value: 97.55 %); type: functional; conditions: NCI-H1975, 72 h, read-out: Activity
[26] = Oral bioavailability in ICR mouse at 10 mg/kg; type: ADME, organism-based; conditions: in vivo
[27] = system: NCI-H1975; experiment: Antiproliferative activity against human NCI-H1975 cells expressing EGFR T790M/L858R mutant assessed as reduction in cell viability incubated for 72 hrs by MTT assay; type: functional, cell-based; conditions: nci-h1975
[28] = Half life in ICR mouse at 10 mg/kg, po; type: ADME, organism-based; conditions: in vivo
[29] = system: NCI-H292; experiment: Antiproliferative activity against human NCI-H292 cells expressing EGFR assessed as reduction in cell viability incubated for 72 hrs by MTT assay; type: functional, cell-based; conditions: nci-h292
[30] = system: NCI-H1975; experiment: Induction of apoptosis in human NCI-H1975 cells assessed as necrotic cells at 50 nM incubated for 24 hrs by propidium iodide and annexin-V FITC staining based flow cytometry (reference value: 0.01 %); type: functional
[31] = system: NCI-H1975; experiment: Induction of apoptosis in human NCI-H1975 cells assessed as necrotic cells at 25 nM incubated for 72 hrs by propidium iodide and annexin-V FITC staining based flow cytometry (reference value: 0.01 %); type: functional
[32] = AUC (0 to t) in ICR mouse at 5 mg/kg, iv; type: ADME, organism-based; conditions: in vivo
[33] = system: NCI-H1975; experiment: Induction of apoptosis in human NCI-H1975 cells assessed as viable cells at 5 nM incubated for 24 hrs by propidium iodide and annexin-V FITC staining based flow cytometry (reference value: 98.82 %); type: functional; conditions: NCI-H1975, 24 h, read-out: Activity

**Q.** Which results are given for `C=CC(=O)Nc1cc(Nc2nccc(-c3cn(C)c4ccccc34)n2)c(OC)cc1[S+]([O-])CCN(C)C` (single isomer, unassigned; (-))?
**A.** Activity [1]: 0.71%; Activity [2]: 43.25%; IC50 [3]: 0.015 µM; Activity [4]: 14.89%; Activity [5]: 21.68%; Activity [6]: 0.32%; IC50 [7]: 1.92 µM; IC50 [8]: 0.229 µM; Activity [9]: 0.06%; Ratio IC50 [10]: 192; Activity [11]: 1.17%; Activity [12]: 0.05%; MRT inf [13]: 2.68 h; EC50 [14]: 0.0902 µM; Activity [15]: 1.2%; Ratio IC50 [16]: 910; Activity [17]: 0.14%; IC50 [18]: 9.14 µM; Activity [19]: 21.59%; Activity [20]: 2.3%; inhibition at 0.005 µM [21]: 45.1%; Ratio IC50 [22]: > 1000; AUC(0-inf) [23]: 1300 ng·h/mL; viability at 0.005 µM [24]: 77%; viability at 0.005 µM [25]: 57.5%; bioavailability [26]: 73.7%; IC50 [27]: 0.01 µM; half-life [28]: 1.73 h; IC50 [29]: 1.09 µM; Activity [30]: 0.45%; Activity [31]: 1.85%; AUC(0-t) [32]: 1290 ng·h/mL; viability at 0.005 µM [33]: 83.6%
